Key:
Assay type in all cases: cell-based
[1] = system: mouse aortic endothelial cells (MAEC); experiment: Mouse aortic ring assay
Description: The mouse aortic ring assay was performed as previously described (Mahabeleshwar, G. H. et al., Methods Mol Med. 129:197-208, 2006).

HUVEC [2] = experiment: HUVEC tube formation assay
Description: (§1) HUVEC or MLEC cells were seeded on Matrigel-coated plates (BD Bioscience). Medium was supplemented with VEGF or protein adducts as indicated, and cells were further incubated at 37° C. for 8 h. Tube formation was observed using a phase contrast inverted microscope, and photographs were taken from each well. The data were quantified by measuring the length of tubes with ImagePro software.

HUVEC [3] = experiment: Cell adhesion assay
Description: We performed cell adhesion assays as described elsewhere (Byzova, T. V. et al., J Cell Biol. 143(7):2081-2092, 1998). Briefly, 10^4 HUVEC or MLEC cells were added to ligand coated wells of a 96-well plate and incubated for 1 h in the presence of CEP-adduct or VEGF as indicated. The cells were washed with and fixed with 4% paraformaldehyde in PBS. Thereafter cells were contrasted by hematoxylin staining and photographs were taken.

[4] = system: Mouse Lung Microvascular EC (MLEC); experiment: MLEC tube formation assay; details: TLR2^−/− EC
Description: Mouse lungs were excised, minced, and digested using a collagenase-dispase reagent (Roche Diagnostic). Digests were strained and the resulting cell suspension was plated on flasks coated with 1 mg/ml fibronectin. Thereafter, endothelial cells were isolated and characterized as described previously (Mahabeleshwar, G. H. et al., Methods Mol Med. 129:197-208, 2006).
as §1

Substance	pro-angiogenic effect, aortic ring sprouting ([1]; wild type / TLR2^+/+ mice)	pro-angiogenic effect, tube formation (HUVEC [2])	EC adhesion stimulation (HUVEC [3])	EC sprouting, aortic ring ([1]; MyD88^−/− cells)	EC response, aortic ring sprouting ([1]; TLR2^−/− mice)	EC response, tube formation [4]
Pam3CSK4	induced robust sprouting	as effective a stimulator as CEP or VEGF	as effective a stimulator as CEP or VEGF	–	–	–
VEGF	–	–	–	not affected by the lack of MyD88	not affected by the lack of TLR2	not affected by the lack of TLR2

— patent publication US10987408B2, “Compositions and methods for modulating toll-like receptor 2 activation” (THE CLEVELAND CLINIC FOUNDATION, priority 2010, dated 2021)
